Test results reported in patent US11357779B2 (G1 Therapeutics, Inc., priority 2018, dated 2022).
Where two headings read alike, the source gives them in different places.

Assay: Plasma concentration versus time of Compound I and metabolite Compound III in patients dosed QD or BID with Form B of Compound II plus fulvestrant
Type: in vivo, human
Details: human, plasma, oral; for concentration at 8 day: Day 8; for concentration at 15 day: Day 15; for concentration at 22 day: Day 22
Excerpt: Patients were enrolled into 1 of 2 parallel, independently operating, dose-escalation dosing cohorts with Form B of Compound II administered continuously either once daily (QD) or twice daily (BID) with food with fixed-dose fulvestrant (intramuscularly every 14 days for the first three injections and then every 28 days). Pre- or perimenopausal patients also received goserelin for the duration of study treatment. A […] agonist was started at least 28 days before the first dose of Form B, and those patients who were taking another LHRH agonist were switched to goserelin on Day 1. Patients were split into […] cohorts providing once a day (QD) dosing of 200 mg, 300 mg, 400 mg, 500 mg, or 650 mg of Form B, or twice a day (BID) dosing of 100 mg, 150 mg, or 200 mg of Form B. The second dose in BID cohorts was not administered in the evening until at least 12 hours after the initial morning dose of Form B. The dosing cohorts for Form B of Compound II are provided in Table 1.
Blood samples were collected at the following time points relative to the morning dose of Form B at Day 1 and at Day 29: pre-dose (0 hour) and 1, 2, 3, 4, 6, 8, 10, 12 (prior to the evening dose in the BID cohorts), and 24 (prior to the next day's morning dose) hours after dosing. A 5-minute time window was allowed for samples collected between the predose and 3 hours after Form B dosing. A 15-minute window was allowed for samples collected between 4 to 12 hours after Form B dosing. A 1-hour window was allowed for the sample collected 24 hours after Form B dosing. Blood samples for Compound I PK trough levels were collected pre-dose at Day 8, Day 15, and Day 22 prior to the morning administration of Compound I. Plasma concentrations of Compound I and its metabolite, Compound III, were measured using validated methods.
Analysis of plasma concentration versus time data for calculation of standard pharmacokinetic (PK) parameters following oral administration was conducted using Phoenix WinNonlin version 6.3 using actual blood sampling times.

[1] = 650 mg, Cohort 5, 650 mg QD of Form B, read-out: Trough Compound III Concentration, Max
[2] = 650 mg, Cohort 5, 650 mg QD of Form B, read-out: Trough Compound III Concentration, Mean
[3] = 650 mg, Cohort 5, 650 mg QD of Form B, read-out: Trough Compound III Concentration, Median
[4] = 650 mg, Cohort 5, 650 mg QD of Form B, read-out: Trough Compound III Concentration, Min

Structure (SMILES): O=C1NCC2(CCCCC2)n2c1cc1cnc(Nc3ccc(N4CCNCC4)cn3)nc12 [Compound III, 2′-((5-(piperazin-1-yl)pyridin-2-yl)amino)-7′,8′-dihydro-6′H-spiro[cyclohexane-1,9′-pyrazino[1′,2′:1,5]pyrrolo[2,3-d]pyrimidin]-6′-one]
- concentration at 8 h (500 mg, Cohort 4, 500 mg QD of Form B, Day 29, 8.0 h, read-out: Compound III Concentration, Mean): 3.56 ng/mL
- concentration at 8 h (500 mg, Cohort 4, 500 mg QD of Form B, Day 29, 8.0 h, read-out: Compound III Concentration, Min): 3.3 ng/mL
- concentration at 10 h (500 mg, Cohort 4, 500 mg QD of Form B, Day 29, 10.0 h, read-out: Compound III Concentration, Max): 2.88 ng/mL
- concentration at 10 h (500 mg, Cohort 4, 500 mg QD of Form B, Day 29, 10.0 h, read-out: Compound III Concentration, Mean): 2.66 ng/mL
- concentration at 10 h (500 mg, Cohort 4, 500 mg QD of Form B, Day 29, 10.0 h, read-out: Compound III Concentration, Min): 2.52 ng/mL
- concentration at 12 h (500 mg, Cohort 4, 500 mg QD of Form B, Day 29, 12.0 h, read-out: Compound III Concentration, Max): 2.55 ng/mL
- concentration at 12 h (500 mg, Cohort 4, 500 mg QD of Form B, Day 29, 12.0 h, read-out: Compound III Concentration, Mean): 2.33 ng/mL
- concentration at 12 h (500 mg, Cohort 4, 500 mg QD of Form B, Day 29, 12.0 h, read-out: Compound III Concentration, Min): 2.1 ng/mL
- concentration at 24 h (500 mg, Cohort 4, 500 mg QD of Form B, Day 29, […], read-out: Compound III Concentration, Mean): 1.24 ng/mL
- concentration at 24 h (500 mg, Cohort 4, 500 mg QD of Form B, Day 29, […], read-out: Compound III Concentration, Min): 0.959 ng/mL
- concentration at 0 h (650 mg, 650 mg QD of Form B, Day 1, 0.0 h, Mean, read-out: Compound III Concentration): 0 ng/mL
- concentration at 0 h (650 mg, 650 mg QD of Form B, Day 1, 0.0 h, Median, read-out: Compound III Concentration): 0 ng/mL
- concentration at 1 h (650 mg, 650 mg QD of Form B, Day 1, 1.0 h, Mean, read-out: Compound III Concentration): 2.73 ng/mL
- concentration at 1 h (650 mg, 650 mg QD of Form B, Day 1, 1.0 h, Median, read-out: Compound III Concentration): 2.77 ng/mL
- concentration at 2 h (650 mg, 650 mg QD of Form B, Day 1, 2.0 h, Mean, read-out: Compound III Concentration): 4.01 ng/mL
- concentration at 2 h (650 mg, 650 mg QD of Form B, Day 1, 2.0 h, Median, read-out: Compound III Concentration): 3.81 ng/mL
- concentration at 3 h (650 mg, 650 mg QD of Form B, Day 1, 3.0 h, Mean, read-out: Compound III Concentration): 6.13 ng/mL
- concentration at 3 h (650 mg, 650 mg QD of Form B, Day 1, 3.0 h, Median, read-out: Compound III Concentration): 6.43 ng/mL
- concentration at 4 h (650 mg, 650 mg QD of Form B, Day 1, 4.0 h, Mean, read-out: Compound III Concentration): 8.35 ng/mL
- concentration at 4 h (650 mg, 650 mg QD of Form B, Day 1, 4.0 h, Median, read-out: Compound III Concentration): 9.22 ng/mL
- concentration at 6 h (650 mg, 650 mg QD of Form B, Day 1, 6.0 h, Mean, read-out: Compound III Concentration): 9.69 ng/mL
- concentration at 6 h (650 mg, 650 mg QD of Form B, Day 1, 6.0 h, Median, read-out: Compound III Concentration): 10 ng/mL
- concentration at 8 h (650 mg, 650 mg QD of Form B, Day 1, 8.0 h, Mean, read-out: Compound III Concentration): 10.1 ng/mL
- concentration at 8 h (650 mg, 650 mg QD of Form B, Day 1, 8.0 h, Median, read-out: Compound III Concentration): 8.66 ng/mL
- concentration at 10 h (650 mg, 650 mg QD of Form B, Day 1, 10.0 h, Mean, read-out: Compound III Concentration): 6.63 ng/mL
- concentration at 10 h (650 mg, 650 mg QD of Form B, Day 1, 10.0 h, Median, read-out: Compound III Concentration): 5.32 ng/mL
- concentration at 12 h (650 mg, 650 mg QD of Form B, Day 1, 12.0 h, Mean, read-out: Compound III Concentration): 5.12 ng/mL
- concentration at 12 h (650 mg, 650 mg QD of Form B, Day 1, 12.0 h, Median, read-out: Compound III Concentration): 4.41 ng/mL
- concentration at 24 h (650 mg, 650 mg QD of Form B, Day 1, […], Mean, read-out: Compound III Concentration): 2.17 ng/mL
- concentration at 24 h (650 mg, 650 mg QD of Form B, Day 1, […], Median, read-out: Compound III Concentration): 1.51 ng/mL
- concentration at 8 day [1]: 4.96 ng/mL
- concentration at 8 day [2]: 3.55 ng/mL
- concentration at 8 day [3]: 3.79 ng/mL
- concentration at 8 day [4]: 1.65 ng/mL
- concentration at 15 day [1]: 3.6 ng/mL
- concentration at 15 day [2]: 3.13 ng/mL
- concentration at 15 day [3]: 3.52 ng/mL
- concentration at 15 day [4]: 2.28 ng/mL
- concentration at 22 day [1]: 5.65 ng/mL
- concentration at 22 day [2]: 3.7 ng/mL
- concentration at 22 day [3]: 3.11 ng/mL
- concentration at 22 day [4]: 2.34 ng/mL
- concentration at 0 h (650 mg, Cohort 5, 650 mg QD of Form B, Day 29, 0.0 h, read-out: Compound III Concentration, Median): 2.06 ng/mL
- concentration at 0 h (650 mg, Cohort 5, 650 mg QD of Form B, Day 29, 0.0 h, read-out: Compound III Concentration, Min): 1.3 ng/mL
- concentration at 1 h (650 mg, Cohort 5, 650 mg QD of Form B, Day 29, 1.0 h, read-out: Compound III Concentration, Median): 2.49 ng/mL
- concentration at 1 h (650 mg, Cohort 5, 650 mg QD of Form B, Day 29, 1.0 h, read-out: Compound III Concentration, Min): 1.28 ng/mL
- concentration at 2 h (650 mg, Cohort 5, 650 mg QD of Form B, Day 29, 2.0 h, read-out: Compound III Concentration, Median): 3.14 ng/mL
- concentration at 2 h (650 mg, Cohort 5, 650 mg QD of Form B, Day 29, 2.0 h, read-out: Compound III Concentration, Min): 1.85 ng/mL
- concentration at 3 h (650 mg, Cohort 5, 650 mg QD of Form B, Day 29, 3.0 h, read-out: Compound III Concentration, Median): 3.89 ng/mL
- concentration at 3 h (650 mg, Cohort 5, 650 mg QD of Form B, Day 29, 3.0 h, read-out: Compound III Concentration, Min): 2.61 ng/mL
- concentration at 4 h (650 mg, Cohort 5, 650 mg QD of Form B, Day 29, 4.0 h, read-out: Compound III Concentration, Median): 4.78 ng/mL
- concentration at 4 h (650 mg, Cohort 5, 650 mg QD of Form B, Day 29, 4.0 h, read-out: Compound III Concentration, Min): 3.42 ng/mL
- concentration at 6 h (650 mg, Cohort 5, 650 mg QD of Form B, Day 29, 6.0 h, read-out: Compound III Concentration, Median): 7.57 ng/mL
- concentration at 6 h (650 mg, Cohort 5, 650 mg QD of Form B, Day 29, 6.0 h, read-out: Compound III Concentration, Min): 5.3 ng/mL
- concentration at 8 h (650 mg, Cohort 5, 650 mg QD of Form B, Day 29, 8.0 h, read-out: Compound III Concentration, Median): 8.64 ng/mL
- concentration at 8 h (650 mg, Cohort 5, 650 mg QD of Form B, Day 29, 8.0 h, read-out: Compound III Concentration, Min): 5.18 ng/mL
- concentration at 10 h (650 mg, Cohort 5, 650 mg QD of Form B, Day 29, 10.0 h, read-out: Compound III Concentration, Min): 4.64 ng/mL
- concentration at 12 h (650 mg, Cohort 5, 650 mg QD of Form B, Day 29, 12.0 h, read-out: Compound III Concentration, Min): 3.42 ng/mL
- concentration at 24 h (650 mg, Cohort 5, 650 mg QD of Form B, Day 29, […], read-out: Compound III Concentration, Median): 3.04 ng/mL
- concentration at 24 h (650 mg, Cohort 5, 650 mg QD of Form B, Day 29, […], read-out: Compound III Concentration, Min): 2.49 ng/mL
